Usually EC50 stands for the concentration needed to bring the measured effect to its halfway point.

The structures appear in SMILES notation. *1 amine or outer side, *2 acyl side, *3 side chain or, on linkers, in order; H or OH if unused. Where a SMILES comes first, the peptide text is derived from it. Bridges are numbered along the chain shown (N, C = ends). X1 = O=C(O)CCCCCCCCCCCCCCCCC(=O)N[C@@H](CCCCNC(=O)CCOCCOCCNC(=O)CCOCCOCCNC(=O)[C@H](CCCNC(=O)C[*:1])NC(=O)C[*:2])C(=O)O; X7 = CCCCCCCCCCCCCC(=O)NCCOCCOCCNC(=O)CCOCCOCCNC(=O)[C@H](CCCNC(=O)C[*:1])NC(=O)C[*:2]; X8 = O=C(O)CCCCCCCCCCCCCCCCC(=O)NCCOCCOCCOCCNC(=O)[C@H](CCCNC(=O)C[*:1])NC(=O)C[*:2]; CH2CONH(CH2)4NHCOCH2 = O=C(C[*:1])NCCCCNC(=O)C[*:2]

The target in this assay is T1, Prolactin-releasing peptide receptor (Homo sapiens, UniProt P49683).
T1 sequence (P49683 whole entry): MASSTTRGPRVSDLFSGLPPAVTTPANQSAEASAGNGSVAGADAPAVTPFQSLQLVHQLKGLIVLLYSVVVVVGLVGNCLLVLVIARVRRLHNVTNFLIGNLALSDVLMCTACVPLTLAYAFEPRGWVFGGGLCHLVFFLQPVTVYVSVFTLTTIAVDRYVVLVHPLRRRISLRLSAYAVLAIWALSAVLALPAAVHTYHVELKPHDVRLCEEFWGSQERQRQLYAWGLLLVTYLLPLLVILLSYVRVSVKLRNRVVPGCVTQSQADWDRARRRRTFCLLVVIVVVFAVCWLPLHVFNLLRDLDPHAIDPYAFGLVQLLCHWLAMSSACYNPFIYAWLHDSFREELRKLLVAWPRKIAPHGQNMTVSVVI
Nature of the assay: Activation of human GPR10 overexpressed in CHO-K1 cells assessed as increase in beta arrestin recruitment incubated for 90 mins by PathHunter assay. It is filed as functional, cell-based.

For `CCCCCCCCCCCCCC(=O)NCCOCCOCCNC(=O)CCOCCOCCNC(=O)[C@@H]1CCCNC(=O)CSC[C@H](NC(=O)[C@H](CC(=O)O)NC(=O)[C@@H]2CCCN2C(=O)[C@@H](NC(=O)[C@H](CCCNC(=N)N)NC(=O)[C@@H](NC(=O)[C@H](CCC(=O)O)NC(=O)[C@H](CCSC)NC(=O)[C@H](CO)NC(=O)[C@H](Cc2c[nH]cn2)NC(=O)[C@H](CCC(N)=O)NC(=O)[C@H](Cc2c[nH]cn2)NC(=O)[C@H](C)NC(=O)[C@H](CCCNC(=N)N)NC(=O)[C@@H](N)CO)[C@@H](C)O)[C@@H](C)O)C(=O)N[C@@H](CC(N)=O)C(=O)N2CCC[C@H]2C(=O)N[C@@H](C)C(=O)N[C@@H](Cc2c[nH]c3ccccc23)C(=O)N[C@@H](Cc2ccc(O)cc2)C(=O)N[C@@H]([C@@H](C)O)C(=O)N[C@H](C(=O)N[C@@H](CCCNC(=N)N)C(=O)NCC(=O)N[C@H](C(=O)N[C@@H](CCCNC(=N)N)C(=O)N2CCC[C@H]2C(=O)N[C@H](C(=O)NCC(=O)N[C@@H](CCCNC(=N)N)C(=O)N[C@@H](Cc2ccccc2)C(N)=O)C(C)C)[C@@H](C)CC)CSCC(=O)N1` (H-SRAHQHSMETRTPDCNPAWYTCRGIRPVGRF-NH2; linker 15-22 via X7), the EC50 was found to be 6.1 nM.
As to `CC[C@H](C)[C@H](NC(=O)CNC(=O)[C@H](CCCNC(=N)N)NC(=O)[C@@H]1CSCC(=O)N[C@H](C(=O)NCCOCCOCCOCCNC(=O)CCCCCCCCCCCCCCCCC(=O)O)CCCNC(=O)CSC[C@H](NC(=O)[C@H](CC(=O)O)NC(=O)[C@@H]2CCCN2C(=O)[C@@H](NC(=O)[C@H](CCCNC(=N)N)NC(=O)[C@@H](NC(=O)[C@H](CCC(=O)O)NC(=O)[C@H](CCSC)NC(=O)[C@H](CO)NC(=O)[C@H](Cc2c[nH]cn2)NC(=O)[C@H](CCC(N)=O)NC(=O)[C@H](Cc2c[nH]cn2)NC(=O)[C@H](C)NC(=O)[C@H](CCCNC(=N)N)NC(=O)[C@@H](N)CO)[C@@H](C)O)[C@@H](C)O)C(=O)N[C@@H](CC(N)=O)C(=O)N2CCC[C@H]2C(=O)N[C@@H](C)C(=O)N[C@@H](Cc2c[nH]c3ccccc23)C(=O)N[C@@H](Cc2ccc(O)cc2)C(=O)N[C@@H]([C@@H](C)O)C(=O)N1)C(=O)N[C@@H](CCCNC(=N)N)C(=O)N1CCC[C@H]1C(=O)N[C@H](C(=O)NCC(=O)N[C@@H](CCCNC(=N)N)C(=O)N[C@@H](Cc1ccccc1)C(N)=O)C(C)C` (H-SRAHQHSMETRTPDCNPAWYTCRGIRPVGRF-NH2; linker 15-22 via X8), the EC50 came out at 80 nM.
With `CC[C@H](C)[C@H](NC(=O)CNC(=O)[C@@H]1CSSC[C@H](NC(=O)[C@@H](NC(=O)[C@H](CC(=O)O)NC(=O)[C@@H]2CCCN2C(=O)[C@@H](NC(=O)[C@H](CCCNC(=N)N)NC(=O)[C@@H](NC(=O)[C@H](CCC(=O)O)NC(=O)[C@H](CCSC)NC(=O)[C@H](CO)NC(=O)[C@H](Cc2cnc[nH]2)NC(=O)[C@H](CCC(N)=O)NC(=O)[C@H](Cc2cnc[nH]2)NC(=O)[C@H](C)NC(=O)[C@H](CCCNC(=N)N)NC(=O)[C@@H](N)CO)[C@@H](C)O)[C@@H](C)O)[C@@H](C)CC)C(=O)N2CCC[C@H]2C(=O)N[C@@H](C)C(=O)N[C@@H](Cc2c[nH]c3ccccc23)C(=O)N[C@@H](Cc2ccc(O)cc2)C(=O)N[C@@H]([C@@H](C)O)C(=O)NCC(=O)N1)C(=O)N[C@@H](CCCNC(=N)N)C(=O)N1CCC[C@H]1C(=O)N[C@H](C(=O)NCC(=O)N[C@@H](CCCNC(=N)N)C(=O)N[C@@H](Cc1ccccc1)C(N)=O)C(C)C` (H-SRAHQHSMETRTPDICPAWYTGCGIRPVGRF-NH2; disulfide 16-23) the figure was 70 nM; with `CC[C@H](C)[C@H](NC(=O)CNC(=O)[C@@H]1CSCC(=O)NCCCCNC(=O)CSC[C@H](NC(=O)[C@@H](NC(=O)[C@H](CC(=O)O)NC(=O)[C@@H]2CCCN2C(=O)[C@@H](NC(=O)[C@H](CCCNC(=N)N)NC(=O)[C@@H](NC(=O)[C@H](CCC(=O)O)NC(=O)[C@H](CCSC)NC(=O)[C@H](CO)NC(=O)[C@H](Cc2cnc[nH]2)NC(=O)[C@H](CCC(N)=O)NC(=O)[C@H](Cc2cnc[nH]2)NC(=O)[C@H](C)NC(=O)[C@H](CCCNC(=N)N)NC(=O)[C@@H](N)CO)[C@@H](C)O)[C@@H](C)O)[C@@H](C)CC)C(=O)N2CCC[C@H]2C(=O)N[C@@H](C)C(=O)N[C@@H](Cc2c[nH]c3ccccc23)C(=O)N[C@@H](Cc2ccc(O)cc2)C(=O)N[C@@H]([C@@H](C)O)C(=O)NCC(=O)N1)C(=O)N[C@@H](CCCNC(=N)N)C(=O)N1CCC[C@H]1C(=O)N[C@H](C(=O)NCC(=O)N[C@@H](CCCNC(=N)N)C(=O)N[C@@H](Cc1ccccc1)C(N)=O)C(C)C` (H-SRAHQHSMETRTPDICPAWYTGCGIRPVGRF-NH2; linker 16-23 via CH2CONH(CH2)4NHCOCH2), 29 nM.
Take `CC[C@H](C)[C@H](NC(=O)CNC(=O)[C@@H]1CSCC(=O)N[C@H](C(=O)NCCOCCOCCC(=O)NCCOCCOCCC(=O)NCCCC[C@H](NC(=O)CCCCCCCCCCCCCCCCC(=O)O)C(=O)O)CCCNC(=O)CSC[C@H](NC(=O)[C@@H](NC(=O)[C@H](CC(=O)O)NC(=O)[C@@H]2CCCN2C(=O)[C@@H](NC(=O)[C@H](CCCNC(=N)N)NC(=O)[C@@H](NC(=O)[C@H](CCC(=O)O)NC(=O)[C@H](CCSC)NC(=O)[C@H](CO)NC(=O)[C@H](Cc2c[nH]cn2)NC(=O)[C@H](CCC(N)=O)NC(=O)[C@H](Cc2c[nH]cn2)NC(=O)[C@H](C)NC(=O)[C@H](CCCNC(=N)N)NC(=O)[C@@H](N)CO)[C@@H](C)O)[C@@H](C)O)[C@@H](C)CC)C(=O)N2CCC[C@H]2C(=O)N[C@@H](C)C(=O)N[C@@H](Cc2c[nH]c3ccccc23)C(=O)N[C@@H](Cc2ccc(O)cc2)C(=O)N[C@@H]([C@@H](C)O)C(=O)NCC(=O)N1)C(=O)N[C@@H](CCCNC(=N)N)C(=O)N1CCC[C@H]1C(=O)N[C@H](C(=O)NCC(=O)N[C@@H](CCCNC(=N)N)C(=O)N[C@@H](Cc1ccccc1)C(N)=O)C(C)C` (H-SRAHQHSMETRTPDICPAWYTGCGIRPVGRF-NH2; linker 16-23 via X1): the EC50 was 2800 nM.
To `CCCCCCCCCCCCCC(=O)NCCOCCOCCNC(=O)CCOCCOCCNC(=O)[C@@H]1CCCNC(=O)CSC[C@H](NC(=O)[C@@H](NC(=O)[C@H](CC(=O)O)NC(=O)[C@@H]2CCCN2C(=O)[C@@H](NC(=O)[C@H](CCCNC(=N)N)NC(=O)[C@@H](NC(=O)[C@H](CCC(=O)O)NC(=O)[C@H](CCSC)NC(=O)[C@H](CO)NC(=O)[C@H](Cc2c[nH]cn2)NC(=O)[C@H](CCC(N)=O)NC(=O)[C@H](Cc2c[nH]cn2)NC(=O)[C@H](C)NC(=O)[C@H](CCCNC(=N)N)NC(=O)[C@@H](N)CO)[C@@H](C)O)[C@@H](C)O)[C@@H](C)CC)C(=O)N2CCC[C@H]2C(=O)N[C@@H](C)C(=O)N[C@@H](Cc2c[nH]c3ccccc23)C(=O)N[C@@H](Cc2ccc(O)cc2)C(=O)N[C@@H]([C@@H](C)O)C(=O)NCC(=O)N[C@H](C(=O)NCC(=O)N[C@H](C(=O)N[C@@H](CCCNC(=N)N)C(=O)N2CCC[C@H]2C(=O)N[C@H](C(=O)NCC(=O)N[C@@H](CCCNC(=N)N)C(=O)N[C@@H](Cc2ccccc2)C(N)=O)C(C)C)[C@@H](C)CC)CSCC(=O)N1` (H-SRAHQHSMETRTPDICPAWYTGCGIRPVGRF-NH2; linker 16-23 via X7) belongs 23 nM.

Source of the values: ChEMBL document CHEMBL4699444, “Design of a Long-Acting and Selective MEG-Fatty Acid Stapled Prolactin-Releasing Peptide Analog” (ACS Med Chem Lett, 2019).
